pIC50: −log10 of the molar value. Strand notation (5' to 3'): a small letter for the sugar, then the base; units joined by * are phosphorothioate-linked, units joined directly phosphodiester-linked; [ ] holds rarer units or linkages, { } end groups; capitals alone tell only the bases. [ms] = mesyl phosphoramidate linkage; e = 2'-O-(2-methoxyethyl) (MOE); k = constrained ethyl (cEt); [5mC] = 5-methylcytosine; d = 2'-deoxy (DNA)
What was measured:
human APOE RNA [1] = test: Dose-dependent inhibition of human APOE RNA in HepG2 cells, electroporation, 50,000 cells per well, RT-PCR normalized to GAPDH (Example 4, Tables 8-10); type: cell-based; details: for APOE RNA (% UTC) 1,280 nM: 24-hour treatment, 1,280 nM; for APOE RNA (% UTC) 3,200 nM: 24-hour treatment, 3,200 nM; for APOE RNA (% UTC) 8,000 nM: 24-hour treatment, 8,000 nM; for APOE RNA (% UTC) 20,000 nM: 24-hour treatment, 20,000 nM
Method in brief: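 Readout is percent APOE RNA versus untreated controls, measured by RT-PCR (primer probe set RTS3073) and normalized to human GAPDH. Modified oligonucleotides were delivered by electroporation at varying doses into HepG2 cells plated at 50,000 per well.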

human APOE RNA [2] = test: Activity in APOE C57BL/6NTac-Apoeem7250 knock-in mice, single ICV bolus, 4 weeks (Example 10); type: in vivo; details: single ICV bolus 300 μg, 4 weeks post treatment, normalized to mouse Ppia
Method in brief: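 Human APOE RNA, quantified by real-time RT-PCR with RTS3073 and normalized to mouse Ppia, was read in cortical brain and spinal cord 4 weeks post dosing. Dosing was a single ICV bolus of 300 μg per knock-in mouse; values are % of PBS-treated animals.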

human APOE RNA [3] = test: Activity in APOE C57BL/6NTac-Apoeem7250 knock-in mice, single ICV bolus, 8 weeks (Example 11); type: in vivo; details: single ICV bolus 300 μg, 8 weeks post treatment, normalized to mouse Ppia
Method in brief: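 Cortical and spinal cord human APOE RNA quantified by RT-qPCR 8 weeks after a single 300 μg ICV dose in knock-in mice, Ppia-normalized. Values are percent of levels in PBS-treated animals.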

human APOE RNA [4] = test: Activity in APOE C57BL/6NTac-Apoeem7250 knock-in mice, single ICV bolus, 16 weeks (Example 12); type: in vivo; details: single ICV bolus 300 μg, 16 weeks post treatment, normalized to mouse Ppia
Method in brief: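 A single 300 μg intracerebroventricular dose was given, with PBS-treated mice as reference; cortical and spinal cord tissue was taken 16 weeks later. RT-qPCR quantified human APOE RNA, Ppia-normalized, expressed relative to PBS animals (% control).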

human APOE RNA [5] = test: Activity in APOE C57BL/6NTac-Apoeem7250 knock-in mice, single ICV bolus, 20 weeks (Example 13); type: in vivo; details: single ICV bolus 300 μg, 20 weeks post treatment, normalized to mouse Ppia
Method in brief: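 Cortical and spinal cord RNA was assayed by real-time RT-PCR for human APOE, normalized to mouse Ppia and reported as percent of PBS controls. Tissue was taken twenty weeks after one 300 μg intracerebroventricular bolus in APOE knock-in mice, 4 per group.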

[6] = HepG2 cells, electroporation, 24-hour treatment, 5 nM, Table 8
[7] = HepG2 cells, electroporation, 24-hour treatment, 13 nM, Table 8
[8] = HepG2 cells, electroporation, 24-hour treatment, 33 nM, Table 8
[9] = HepG2 cells, electroporation, 24-hour treatment, 82 nM, Table 8
[10] = HepG2 cells, electroporation, 24-hour treatment, 205 nM, Table 8
[11] = HepG2 cells, electroporation, 24-hour treatment, 512 nM, Table 8
[12] = HepG2 cells, electroporation, Table 8
[13] = reduction of human APOE RNA, HepG2 cells, electroporation, 24-hour treatment, Table 8

Row | Substance | APOE RNA (% UTC) 5 nM (human APOE RNA [1]; [6]) [% UTC] | APOE RNA (% UTC) 13 nM (human APOE RNA [1]; [7]) [% UTC] | APOE RNA (% UTC) 33 nM (human APOE RNA [1]; [8]) [% UTC] | APOE RNA (% UTC) 82 nM (human APOE RNA [1]; [9]) [% UTC] | APOE RNA (% UTC) 205 nM (human APOE RNA [1]; [10]) [% UTC] | APOE RNA (% UTC) 512 nM (human APOE RNA [1]; [11]) [% UTC] | APOE RNA (% UTC) 1,280 nM (human APOE RNA [1]; [12]) [% UTC] | APOE RNA (% UTC) 3,200 nM (human APOE RNA [1]; [12]) [% UTC] | APOE RNA (% UTC) 8,000 nM (human APOE RNA [1]; [12]) [% UTC] | APOE RNA (% UTC) 20,000 nM (human APOE RNA [1]; [12]) [% UTC] | pIC50 (human APOE RNA [1]; [13]) | APOE RNA (% control) Cortex (human APOE RNA [2]) [% control] | APOE RNA (% control) Spinal Cord (human APOE RNA [2]) [% control] | APOE RNA (% control) Cortex (human APOE RNA [3]) [% control] | APOE RNA (% control) Spinal Cord (human APOE RNA [3]) [% control] | APOE RNA (% control) Cortex (human APOE RNA [4]) [% control] | APOE RNA (% control) Spinal Cord (human APOE RNA [4]) [% control] | APOE RNA (% control) Cortex (human APOE RNA [5]) [% control] | APOE RNA (% control) Spinal Cord (human APOE RNA [5]) [% control] | other results
1 | 1785601: modified oligonucleotide complementary to human APOE RNA (k[5mC]*kT*kT*dG[ms]dG[ms]dT[ms]dG*dA[ms]dA[ms]dT*d[5mC]*dT*dT*dT*dA[ms]dT*kT*kA*dA[ms]kA; antisense) [compound 1785601] | 111 | 115 | 101 | 75 | 63 | 36 | 25 | 15 | 16 | 10 | 6.42 | 33 | 40 | 28 | 211 | 39 | 21 | 43 | 31 | –
2 | 1778127: modified oligonucleotide complementary to human APOE RNA (eA*e[5mC]eTeTkGkG*dT*dG[ms]dA[ms]dA*dT*d[5mC]*dT*dT*dT*dA[ms]kTeT[ms]eA[ms]eA; antisense) [compound 1778127] | 98 | 88 | 85 | 82 | 55 | 31 | 30 | 16 | 14 | 4 | 6.51 | 32 | 53 | 28 | 14 | 48 | 25 | 57 | 43 | –
3 | 1757571 (eA*e[5mC]eTeT*eG*kG*dT*dG[ms]dA[ms]dA[ms]dT*d[5mC]*dT*dT*dT*dA[ms]eT*eT*eA*eA; antisense) [Compound 1757571] | – | – | – | – | – | – | – | – | – | – | – | 48 | 35 | 66 | 33 | 47 | 26 | 53 | 73 | APOE RNA (% UTC) (human APOE RNA [1]; 5 nM, HepG2, electroporation, 16-hour treatment): 68 % UTC; APOE RNA (% UTC) (human APOE RNA [1]; 13 nM, HepG2, electroporation, 16-hour treatment): 86 % UTC; APOE RNA (% UTC) (human APOE RNA [1]; 33 nM, HepG2, electroporation, 16-hour treatment): 98 % UTC; APOE RNA (% UTC) (human APOE RNA [1]; 82 nM, HepG2, electroporation, 16-hour treatment): 62 % UTC; APOE RNA (% UTC) (human APOE RNA [1]; 205 nM, HepG2, electroporation, 16-hour treatment): 103 % UTC; APOE RNA (% UTC) (human APOE RNA [1]; 512 nM, HepG2, electroporation, 16-hour treatment): 38 % UTC; APOE RNA (% UTC) (human APOE RNA [1]; 1,280 nM, HepG2, electroporation, 16-hour treatment): 26 % UTC; APOE RNA (% UTC) (human APOE RNA [1]; 3,200 nM, HepG2, electroporation, 16-hour treatment): 24 % UTC; APOE RNA (% UTC) (human APOE RNA [1]; 8,000 nM, HepG2, electroporation, 16-hour treatment): 14 % UTC; APOE RNA (% UTC) (human APOE RNA [1]; 20,000 nM, HepG2, electroporation, 16-hour treatment): 11 % UTC; pIC50 (human APOE RNA [1]; HepG2, electroporation, 16-hour treatment): 6.26
4 | 1778123: modified oligonucleotide complementary to human APOE RNA (eA*e[5mC]eTeTeG*eG*dT*dG[ms]dA[ms]dA*dT*d[5mC]*dT*dT*dT*dA[ms]kTkT*eA*eA; antisense) [compound 1778123] | 79 | 91 | 84 | 76 | 55 | 51 | 25 | 11 | 6 | 5 | 6.49 | 37 | 59 | 49 | 29 | 54 | 31 | 77 | 36 | –
5 | 1778115: modified oligonucleotide complementary to human APOE RNA (eA*e[5mC]eTeTkGkG*dT*dG[ms]dA[ms]dA*dT*d[5mC]*dT*dT*dT*dA[ms]eTeT*eA*eA; antisense) [compound 1778115] | 76 | 75 | 73 | 85 | 72 | 43 | 38 | 29 | 32 | 6 | 6.28 | 37 | 66 | 46 | 27 | 44 | 28 | 77 | 28 | –

Source: patent US20250353873A1, “COMPOUNDS AND METHODS FOR MODULATING APOE EXPRESSION” (Ionis Pharmaceuticals, Inc., priority 2024, published 2025)
